Molecular target: PDE1A (Homo sapiens, UniProt P54750)
Test: PDE1A enzyme inhibition (fluorescence polarization, FAM-cyclic-3',5'-AMP)
Assay type: biochemical
Settings: for IC50: 15 ng/mL PDE1A, 100 nM FAM-cAMP, 25 °C, 1 h; for PDE1A inhibitory activity compared to vinpocetine (in words) / fold improvement in PDE1A inhibitory activity compared to vinpocetine: relative to vinpocetine
Procedure: The assays were carried out as described previously. All of the enzymatic reactions were conducted at 25 °C for 1 h. The reaction mixture contains 40 mM MOPS (pH 7.5), 0.5 mM EDTA, 15 mM MgCl2, 0.15 mg/mL BSA, 1 mM DTT, 0.05% Proclin 200, 15 ng/mL PDE1A, and 100 nM FAM-cyclic-3′, 5′-AMP. The compounds were dissolved in 10% DMSO, and 5 μL of the dilution was added to a 50 μL reaction for a final concentration of 1% DMSO in all reactions. The reaction mixture was incubated at 25 °C for 1 h. Then, 100 μL of diluted binding agent was added to each well and incubated at 25 °C for 1 h with slow shaking. The fluorescence polarization of the sample was detected using an excitation filter of 360 nm and an emission filter of 480 nm. The IC50 values were calculated using non-linear regression with a normalized dose–response fit using Prism 6 (GraphPad Software, San Diego, CA, USA).

Chain of PDE1A (P54750 whole entry, species assumed): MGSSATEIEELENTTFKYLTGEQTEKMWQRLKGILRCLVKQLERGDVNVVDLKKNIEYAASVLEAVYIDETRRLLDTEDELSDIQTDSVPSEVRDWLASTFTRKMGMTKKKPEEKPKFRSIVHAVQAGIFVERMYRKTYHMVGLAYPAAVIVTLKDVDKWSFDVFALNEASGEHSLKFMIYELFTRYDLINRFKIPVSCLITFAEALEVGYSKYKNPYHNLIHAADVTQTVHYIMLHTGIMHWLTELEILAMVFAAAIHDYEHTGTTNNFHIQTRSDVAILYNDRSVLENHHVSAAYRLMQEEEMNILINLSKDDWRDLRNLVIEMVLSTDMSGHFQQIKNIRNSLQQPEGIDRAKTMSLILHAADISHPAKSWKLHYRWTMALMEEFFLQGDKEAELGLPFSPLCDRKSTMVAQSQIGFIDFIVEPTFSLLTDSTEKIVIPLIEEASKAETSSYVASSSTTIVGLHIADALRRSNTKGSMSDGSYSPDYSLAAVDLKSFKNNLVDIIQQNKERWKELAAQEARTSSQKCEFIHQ

Row | SMILES | IC50 [µM] | fold improvement in PDE1A inhibitory activity compared to vinpocetine [fold] | PDE1A inhibitory activity compared to vinpocetine (in words)
1 | CC[C@@]12C=C(COCc3cccc(F)c3)n3c4c(c5ccccc53)CCN(CCC1)[C@H]42 [Compound 6, (41S,13aS)-13a-ethyl-12-(((3-fluorobenzyl)oxy)methyl)-2,3,41,5,6,13a-hexahydro-1H-indolo[3,2,1-de]pyrido[3,2,1-ij][1,5]naphthyridine] | 25.6 ± 1.23 | – | –
2 | CC[C@@]12C=C(COCc3ccccc3Cl)n3c4c(c5ccccc53)CCN(CCC1)[C@H]42 [Compound 10, (41S,13aS)-12-(((2-chlorobenzyl)oxy)methyl)-13a-ethyl-2,3,41,5,6,13a-hexahydro-1H-indolo[3,2,1-de]pyrido[3,2,1-ij][1,5]naphthyridine] | 35 ± 1.85 | – | –
3 | CC[C@@]12C=C(COCc3ccc(C)cc3)n3c4c(c5ccccc53)CCN(CCC1)[C@H]42 [Compound 3, (41S,13aS)-13a-ethyl-12-(((4-methylbenzyl)oxy)methyl)-2,3,41,5,6,13a-hexahydro-1H-indolo[3,2,1-de]pyrido[3,2,1-ij][1,5]naphthyridine] | 8.52 ± 0.68 | – | superior inhibitory activity compared to vinpocetine
4 | CC[C@@]12C=C(COCc3ccc(F)cc3)n3c4c(c5ccccc53)CCN(CCC1)[C@H]42 [Compound 5, (41S,13aS)-13a-ethyl-12-(((4-fluorobenzyl)oxy)methyl)-2,3,41,5,6,13a-hexahydro-1H-indolo[3,2,1-de]pyrido[3,2,1-ij][1,5]naphthyridine] | 17.2 ± 3.75 | – | superior inhibitory activity compared to vinpocetine
5 | CC[C@@]12C=C(COCc3cccc(Cl)c3)n3c4c(c5ccccc53)CCN(CCC1)[C@H]42 [Compound 9, (41S,13aS)-12-(((3-chlorobenzyl)oxy)methyl)-13a-ethyl-2,3,41,5,6,13a-hexahydro-1H-indolo[3,2,1-de]pyrido[3,2,1-ij][1,5]naphthyridine] | 72.1 ± 3.89 | – | –
6 | CC[C@@]12C=C(COCc3ccc(Cl)cc3)n3c4c(c5ccccc53)CCN(CCC1)[C@H]42 [Compound 8, (41S,13aS)-12-(((4-chlorobenzyl)oxy)methyl)-13a-ethyl-2,3,41,5,6,13a-hexahydro-1H-indolo[3,2,1-de]pyrido[3,2,1-ij][1,5]naphthyridine] | 48.8 ± 2.55 | – | –
7 | CC[C@@]12C=C(COCc3ccc(Br)cc3)n3c4c(c5ccccc53)CCN(CCC1)[C@H]42 [Compound 11, (41S,13aS)-12-(((4-bromobenzyl)oxy)methyl)-13a-ethyl-2,3,41,5,6,13a-hexahydro-1H-indolo[3,2,1-de]pyrido[3,2,1-ij][1,5]naphthyridine] | 54.8 ± 3.42 | – | –
8 | CC[C@@]12C=C(COCc3cccc(Br)c3)n3c4c(c5ccccc53)CCN(CCC1)[C@H]42 [Compound 12, (41S,13aS)-12-(((3-bromobenzyl)oxy)methyl)-13a-ethyl-2,3,41,5,6,13a-hexahydro-1H-indolo[3,2,1-de]pyrido[3,2,1-ij][1,5]naphthyridine] | 12.5 ± 1.06 | – | superior inhibitory activity compared to vinpocetine
9 | CC[C@@]12C=C(COCc3ccccc3F)n3c4c(c5ccccc53)CCN(CCC1)[C@H]42 [Compound 7, (41S,13aS)-13a-ethyl-12-(((2-fluorobenzyl)oxy)methyl)-2,3,41,5,6,13a-hexahydro-1H-indolo[3,2,1-de]pyrido[3,2,1-ij][1,5]naphthyridine] | 28.7 ± 1.15 | – | –
10 | CC[C@@]12C=C(COCc3ccccc3)n3c4c(c5ccccc53)CCN(CCC1)[C@H]42 [Compound 2, (41S,13aS)-12-((benzyloxy)methyl)-13a-ethyl-2,3,41,5,6,13a-hexahydro-1H-indolo[3,2,1-de]pyrido[3,2,1-ij][1,5]naphthyridine] | 19.2 ± 2.25 | – | –
11 | CCC12C=C(COCc3cccc(C)c3)n3c4c(c5ccccc53)CCN(CCC1)C42 [Compound 4, (41S,13aS)-13a-ethyl-12-(((3-methylbenzyl)oxy)methyl)-2,3,41,5,6,13a-hexahydro-1H-indolo[3,2,1-de]pyrido[3,2,1-ij][1,5]naphthyridine] | 3.53 ± 0.25 | 5 | superior inhibitory activity compared to vinpocetine

Second part, led by results:

Row | IC50 [µM] | fold improvement in PDE1A inhibitory activity compared to vinpocetine [fold] | SMILES | PDE1A inhibitory activity compared to vinpocetine (in words)
12 | 46.4 ± 1.94 | – | CC[C@@]12C=C(COCc3cc(F)cc(F)c3)n3c4c(c5ccccc53)CCN(CCC1)[C@H]42 [Compound 22, (41S,13aS)-12-(((3,5-difluorobenzyl)oxy)methyl)-13a-ethyl-2,3,41,5,6,13a-hexahydro-1H-indolo[3,2,1-de]pyrido[3,2,1-ij][1,5]naphthyridine] | –
13 | 63.7 ± 3.85 | – | CC[C@@]12C=C(COCc3cc(C)nn3C)n3c4c(c5ccccc53)CCN(CCC1)[C@H]42 [Compound 24, (41S,13aS)-12-(((1,3-dimethyl-1H-pyrazol-5-yl)methoxy)methyl)-13a-ethyl-2,3,41,5,6,13a-hexahydro-1H-indolo[3,2,1-de]pyrido[3,2,1-ij][1,5]naphthyridine] | –
14 | 58.2 ± 3.2 | – | CC[C@@]12C=C(COCc3cc(Br)cc(Br)c3)n3c4c(c5ccccc53)CCN(CCC1)[C@H]42 [Compound 23, (41S,13aS)-12-(((3,5-dibromobenzyl)oxy)methyl)-13a-ethyl-2,3,41,5,6,13a-hexahydro-1H-indolo[3,2,1-de]pyrido[3,2,1-ij][1,5]naphthyridine] | –
15 | 10 ± 0.85 | – | CC[C@@]12C=C(COCc3cc(C)cc(C)c3)n3c4c(c5ccccc53)CCN(CCC1)[C@H]42 [Compound 21, (41S,13aS)-12-(((3,5-dimethylbenzyl)oxy)methyl)-13a-ethyl-2,3,41,5,6,13a-hexahydro-1H-indolo[3,2,1-de]pyrido[3,2,1-ij][1,5]naphthyridine] | superior inhibitory activity compared to vinpocetine
16 | 15.6 ± 1.09 | – | CC[C@@]12C=C(COCc3ccc(C#N)cc3)n3c4c(c5ccccc53)CCN(CCC1)[C@H]42 [Compound 14, 4-((((41S,13aS)-13a-ethyl-2,3,41,5,6,13a-hexahydro-1H-indolo[3,2,1-de]pyrido[3,2,1-ij][1,5]naphthyridin-12-yl)methoxy)methyl)benzonitrile] | superior inhibitory activity compared to vinpocetine
17 | 45.1 ± 2.27 | – | CC[C@@]12C=C(COCc3ccccc3C#N)n3c4c(c5ccccc53)CCN(CCC1)[C@H]42 [Compound 15, 2-((((41S,13aS)-13a-ethyl-2,3,41,5,6,13a-hexahydro-1H-indolo[3,2,1-de]pyrido[3,2,1-ij][1,5]naphthyridin-12-yl)methoxy)methyl)benzonitrile] | –
18 | 48.4 ± 1.44 | – | CC[C@@]12C=C(COCc3cccc(C(F)(F)F)c3)n3c4c(c5ccccc53)CCN(CCC1)[C@H]42 [Compound 17, (41S,13aS)-13a-ethyl-12-(((3-(trifluoromethyl)benzyl)oxy)methyl)-2,3,41,5,6,13a-hexahydro-1H-indolo[3,2,1-de]pyrido[3,2,1-ij][1,5]naphthyridine] | –
19 | 2.08 ± 0.16 | 8 | CCC12C=C(COCc3cnc(Cl)s3)n3c4c(c5ccccc53)CCN(CCC1)C42 [Compound 25, 2-chloro-5-((((41S,13aS)-13a-ethyl-2,3,41,5,6,13a-hexahydro-1H-indolo[3,2,1-de]pyrido[3,2,1-ij][1,5]naphthyridin-12-yl)methoxy)methyl)thiazole] | superior inhibitory activity compared to vinpocetine
20 | 17.3 ± 1.21 | – | CCOC(=O)C1=C[C@]2(CC)CCCN3CCc4c(n1c1ccccc41)[C@@H]32 [Vinpocetine] | –
21 | 44.8 ± 2.26 | – | CC[C@@]12C=C(COCc3ccc(-c4ccccc4)cc3)n3c4c(c5ccccc53)CCN(CCC1)[C@H]42 [Compound 18, (41S,13aS)-12-(([1,1′-biphenyl]-4-ylmethoxy)methyl)-13a-ethyl-2,3,41,5,6,13a-hexahydro-1H-indolo[3,2,1-de]pyrido[3,2,1-ij][1,5]naphthyridine] | –
22 | 57.7 ± 2.96 | – | CC[C@@]12C=C(COCc3ccc(C(F)(F)F)cc3)n3c4c(c5ccccc53)CCN(CCC1)[C@H]42 [Compound 16, (41S,13aS)-13a-ethyl-12-(((4-(trifluoromethyl)benzyl)oxy)methyl)-2,3,41,5,6,13a-hexahydro-1H-indolo[3,2,1-de]pyrido[3,2,1-ij][1,5]naphthyridine] | –
23 | 89.6 ± 5.34 | – | CC[C@@]12C=C(COCc3ccc4ccccc4c3)n3c4c(c5ccccc53)CCN(CCC1)[C@H]42 [Compound 20, (41S,13aS)-13a-ethyl-12-((naphthalen-2-ylmethoxy)methyl)-2,3,41,5,6,13a-hexahydro-1H-indolo[3,2,1-de]pyrido[3,2,1-ij][1,5]naphthyridine] | –
24 | 88.3 ± 3.26 | – | CC[C@@]12C=C(COCc3ccccc3Br)n3c4c(c5ccccc53)CCN(CCC1)[C@H]42 [Compound 13, (41S,13aS)-12-(((2-bromobenzyl)oxy)methyl)-13a-ethyl-2,3,41,5,6,13a-hexahydro-1H-indolo[3,2,1-de]pyrido[3,2,1-ij][1,5]naphthyridine] | –
25 | 54.3 ± 1.84 | – | CC[C@@]12C=C(COCc3cccc4ccccc34)n3c4c(c5ccccc53)CCN(CCC1)[C@H]42 [Compound 19, (41S,13aS)-13a-ethyl-12-((naphthalen-1-ylmethoxy)methyl)-2,3,41,5,6,13a-hexahydro-1H-indolo[3,2,1-de]pyrido[3,2,1-ij][1,5]naphthyridine] | –

From article PMC10779641, “Synthesis and Activity Evaluation of Vinpocetine-Derived Indole Alkaloids” (Molecules, 2023)
